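All cell lines were grown in 96-well plates and treated with compound for 48 hours. GI50: concentration for 50% inhibition of growth. TGI denotes the concentration required for complete inhibition of growth.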
Assays:
Assay in all cases: NCI tumour cell line growth inhibition, 48 h; in the data active means GI50 below about 0.43 µM; inactive means the rest
[1] = test system: ACHN renal
[2] = test system: HL-60(TB) leukemia
[3] = test system: LOX IMVI melanoma
[4] = test system: MOLT-4 leukemia
[5] = test system: NCI-H522 lung
[6] = test system: SK-MEL-2 melanoma
[7] = test system: SK-MEL-28 melanoma
[8] = test system: SR leukemia
[9] = test system: SW-620 colon
[10] = test system: NCI-H23 lung

Cn1cc(-c2ccc(CNc3cc(-c4cnc5cc(OCCCN6CCCC6)ccn45)ncn3)cc2)cn1
30.4 µM: TGI [6]
3.22 µM: TGI [1]
inactive: GI50 [1] 1.78 µM | GI50 [2] 2.31 µM | GI50 [3] 1.75 µM | GI50 [4] 2.76 µM | GI50 [5] 18.6 µM | GI50 [6] 15.5 µM | GI50 [7] 1.65 µM | GI50 [8] 2.17 µM | GI50 [9] 1.61 µM
3.17 µM: TGI [7] | TGI [9]
3.4 µM: TGI [3]
> 100 µM: TGI [4]
6.94 µM: TGI [2]
7.12 µM: TGI [8]
37.8 µM: TGI [5]

COC(=O)C(=O)C(C(=O)C=C(C)C)C(=O)C(=O)Nc1cccc(C(C)=O)c1 (stereo not drawn)
> 100 µM: TGI [1] | TGI [2] | TGI [3] | TGI [4] | TGI [10] | TGI [5] | TGI [6] | TGI [7] | TGI [8] | TGI [9]

C[C@H](CS(C)(=O)=O)Nc1ncc2cc(Oc3ccc(F)cc3F)c(=O)n(C)c2n1
> 25 µM: TGI [1] | TGI [2] | TGI [3] | TGI [4] | TGI [10] | TGI [5] | TGI [6] | TGI [7] | TGI [8] | TGI [9]
inactive: GI50 [1] > 25 µM | GI50 [2] > 25 µM | GI50 [3] > 25 µM | GI50 [4] > 25 µM | GI50 [10] > 25 µM | GI50 [5] > 25 µM | GI50 [6] > 25 µM | GI50 [7] > 25 µM | GI50 [8] > 25 µM | GI50 [9] > 25 µM

COC(=O)C(Cc1nc2ccc(Cl)cc2[nH]c1=O)C(=O)C(=O)Nc1ccccc1[N+](=O)[O-] (stereo not drawn)
> 100 µM: TGI [1] | TGI [2] | TGI [3] | TGI [4] | TGI [10] | TGI [5] | TGI [6] | TGI [7] | TGI [8] | TGI [9]

O=C(Nc1ccc2c(c1)oc(=O)c1ccccc12)C(Cl)Cl
25.5 µM: TGI [2]
> 100 µM: TGI [1] | TGI [3] | TGI [4] | TGI [10] | TGI [5] | TGI [6] | TGI [7] | TGI [8] | TGI [9]

Oc1cc(Cl)ccc1Oc1ccc(Cl)cc1Cl
6.05 µM: TGI [5]
8.31 µM: TGI [2]
10.9 µM: TGI [8]
5.5 µM: TGI [10]
inactive: GI50 [1] 3.47 µM | GI50 [2] 3.31 µM | GI50 [3] 1.87 µM | GI50 [4] 3.74 µM | GI50 [10] 2.07 µM | GI50 [5] 2.36 µM | GI50 [6] 2.41 µM | GI50 [7] 3.09 µM | GI50 [8] 3.46 µM | GI50 [9] 3.51 µM
5.01 µM: TGI [6]
3.86 µM: TGI [3]
10.4 µM: TGI [7]
12.7 µM: TGI [9]
11.3 µM: TGI [1] | TGI [4]

CN(C)c1ccc(N=Nc2c([O-])ccc3ccccc23)cc1.[C-]#[O+].[C-]#[O+].[Ir]
40.5 µM: TGI [3]
59.5 µM: TGI [4]
25.7 µM: TGI [9]
inactive: GI50 [1] 5.43 µM | GI50 [2] 10.6 µM | GI50 [3] 18.6 µM | GI50 [4] 12.6 µM | GI50 [10] 19.4 µM | GI50 [5] 7.83 µM | GI50 [6] 23.8 µM | GI50 [7] 26.3 µM | GI50 [8] 17.9 µM | GI50 [9] 1.48 µM
65.4 µM: TGI [7]
55.2 µM: TGI [1]
> 46.6 µM: TGI [2]
54.9 µM: TGI [10]
57.7 µM: TGI [8]
48.2 µM: TGI [6]
23.5 µM: TGI [5]

O=c1[nH]cc(OCC(F)(F)F)c(=O)[nH]1
> 100 µM: TGI [1] | TGI [2] | TGI [3] | TGI [4] | TGI [10] | TGI [5] | TGI [6] | TGI [7] | TGI [8] | TGI [9]

Fc1ccc(Nc2nc(NCCNc3ccnc4cc(Cl)ccc34)nc(N3CCOCC3)n2)cc1
4.89 µM: TGI [2]
7.6 µM: TGI [8]
16.4 µM: TGI [9]
10.1 µM: TGI [3]
20.2 µM: TGI [1]
30.2 µM: TGI [10]
3.25 µM: TGI [7]
15.3 µM: TGI [5]
16.5 µM: TGI [4]
inactive: GI50 [1] 7.06 µM | GI50 [2] 1.8 µM | GI50 [3] 2.95 µM | GI50 [4] 4.16 µM | GI50 [10] 14.6 µM | GI50 [5] 4.25 µM | GI50 [6] 2.2 µM | GI50 [7] 1.83 µM | GI50 [8] 2.44 µM | GI50 [9] 4.21 µM
4.51 µM: TGI [6]

FC(F)(F)C12C34C=CC5(CCC6(C=CC1(CC3)O6)C52C(F)(F)F)O4 (stereo not drawn)
> 100 µM: TGI [1] | TGI [2] | TGI [3] | TGI [4] | TGI [10] | TGI [5] | TGI [6] | TGI [7] | TGI [8] | TGI [9]

Cc1cccc(C(C)(C)C)c1NC(=O)C(=O)C(c1cnc2ccccc2n1)[N+](=O)[O-] (stereo not drawn)
> 100 µM: TGI [1] | TGI [2] | TGI [3] | TGI [4] | TGI [10] | TGI [5] | TGI [6] | TGI [7] | TGI [8] | TGI [9]

CCN1C(=O)N(CC)C2C1NN=c1s/c(=C3\C(=O)N(C)c4ccccc43)c(=O)n12 (stereo not drawn)
2.05 µM: TGI [2]
inactive: GI50 [1] 0.752 µM | GI50 [2] 0.434 µM | GI50 [3] 0.958 µM | GI50 [4] 1.7 µM | GI50 [10] 3.24 µM | GI50 [5] 0.609 µM | GI50 [6] 3.06 µM | GI50 [7] 3.09 µM | GI50 [9] 0.58 µM
active: GI50 [8] 0.382 µM
33 µM: TGI [5]
> 88.1 µM: TGI [10]
> 100 µM: TGI [1] | TGI [3] | TGI [4] | TGI [6] | TGI [7] | TGI [8] | TGI [9]

COc1ccc2c(c1)nc(N)c1c3cccnc3cn21
18.3 µM: TGI [2]
22.4 µM: TGI [8]
> 100 µM: TGI [4]
3.45 µM: TGI [5]
18.7 µM: TGI [3]
15 µM: TGI [1]
inactive: GI50 [6] 0.843 µM
24.2 µM: TGI [6]
active: GI50 [1] 0.0938 µM | GI50 [2] 0.0313 µM | GI50 [3] 0.0713 µM | GI50 [4] 0.0861 µM | GI50 [10] 0.345 µM | GI50 [5] 0.0411 µM | GI50 [8] 0.0339 µM | GI50 [9] 0.0373 µM
14.5 µM: TGI [9]
50 µM: TGI [10]

C/C1=C\CC[C@@](C)(O)[C@@H]2CC3[C@@H](OC(=O)C34CC4)[C@@H](O2)[C@H](C)CCC1 (stereo partly drawn)
28.5 µM: TGI [5]
35.1 µM: TGI [1]
> 100 µM: TGI [2] | TGI [4] | TGI [7] | TGI [8] | TGI [9]
34.4 µM: TGI [6]
inactive: GI50 [1] 16.9 µM | GI50 [2] 42.4 µM | GI50 [3] 6.09 µM | GI50 [4] 39.2 µM | GI50 [5] 12.7 µM | GI50 [6] 16.2 µM | GI50 [7] 61.7 µM | GI50 [8] 19.9 µM | GI50 [9] 35.2 µM
25.8 µM: TGI [3]

CSc1nc(-c2ccccc2)c2c(n1)-c1ccccc1CC2
> 100 µM: TGI [2] | TGI [3] | TGI [4] | TGI [10] | TGI [5] | TGI [6] | TGI [7] | TGI [8] | TGI [9]

Source: PubChem BioAssay (NCI)
